Experiment: xn = mol fraction of the nth substance listed

CCOc1ccccc1 + Nc1ccccc1
viscosity [mPa·s], 101 kPa
Conditions | x1 = 0.09206 | x1 = 0.1748 | x1 = 0.2667 | x1 = 0.3716 | x1 = 0.4789 | x1 = 0.5934 | x1 = 0.7132 | x1 = 0.8542
293.35 K | 3.64 | 3.17 | 2.75 | 2.39 | 2.1 | 1.84 | 1.63 | 1.428
302.75 K | 2.7 | 2.38 | 2.115 | 1.87 | 1.67 | 1.495 | 1.335 | 1.169
313.15 K | 2.08 | 1.865 | 1.675 | 1.5 | 1.355 | 1.225 | 1.106 | 0.982

CCOc1ccccc1 + CCCCCCO
viscosity [mPa·s], 101.3 kPa
Conditions | x1 = 0.1009 | x1 = 0.1998 | x1 = 0.2997 | x1 = 0.3996 | x1 = 0.5031 | x1 = 0.6005 | x1 = 0.7003 | x1 = 0.8012 | x1 = 0.9001
293.15 K | 4.148 | 3.239 | 2.559 | 2.075 | 1.745 | 1.557 | 1.458 | 1.407 | 1.38
298.15 K | 3.444 | 2.764 | 2.253 | 1.872 | 1.586 | 1.392 | 1.293 | 1.246 | 1.237
308.15 K | 2.831 | 2.252 | 1.807 | 1.482 | 1.248 | 1.103 | 1.033 | 1.001 | 0.9927
318.15 K | 2.142 | 1.72 | 1.388 | 1.153 | 0.9975 | 0.9133 | 0.8619 | 0.8367 | 0.8214

CCOc1ccccc1 + CCCCCCCO
viscosity [mPa·s], 101.3 kPa
Conditions | x1 = 0.0989 | x1 = 0.1998 | x1 = 0.2988 | x1 = 0.4017 | x1 = 0.5011 | x1 = 0.6101 | x1 = 0.7004 | x1 = 0.8009 | x1 = 0.9031
293.15 K | 5.488 | 4.237 | 3.317 | 2.62 | 2.147 | 1.814 | 1.606 | 1.47 | 1.388
298.15 K | 4.761 | 3.758 | 2.978 | 2.379 | 1.916 | 1.583 | 1.412 | 1.295 | 1.252
308.15 K | 3.737 | 2.957 | 2.382 | 1.91 | 1.58 | 1.318 | 1.171 | 1.066 | 1.001
318.15 K | 2.785 | 2.261 | 1.846 | 1.517 | 1.28 | 1.083 | 0.9726 | 0.8947 | 0.8422

CCCCCCCCCCCCCCCCCCCl + CCCCCCCCCCCC
298 K, 101.3 kPa
Conditions | viscosity [mPa·s]
x2 = 0.1097 | 6.289
x2 = 0.2096 | 5.429
x2 = 0.3134 | 4.684
x2 = 0.4067 | 4
x2 = 0.5044 | 3.481
x2 = 0.6047 | 2.887
x2 = 0.6853 | 2.488
x2 = 0.805 | 2.012
x2 = 0.8971 | 1.662

COc1ccc(C=O)cc1 + Cc1ccc(O)cc1
Conditions | viscosity [mPa·s]
308.15 K, 101 kPa, x1 = 0.8868 | 3.965

COc1ccc(C=O)cc1 + Cc1ccccc1
viscosity [mPa·s], 101 kPa
Conditions | x1 = 0.0899 | x1 = 0.1818 | x1 = 0.2759 | x1 = 0.3721 | x1 = 0.4706 | x1 = 0.5714 | x1 = 0.6747 | x1 = 0.7805 | x1 = 0.8889
303.15 K | 0.5703 | 0.6449 | 0.7185 | 0.9019 | 1.099 | 1.356 | 1.551 | 2.61 | 2.857
308.15 K | 0.5414 | 0.6128 | 0.6929 | 0.8502 | 1.018 | 1.258 | 1.388 | 2.218 | 2.505
313.15 K | 0.512 | 0.5751 | 0.6448 | 0.7809 | 0.9332 | 1.122 | 1.259 | 2.011 | 2.165
318.15 K | 0.4586 | 0.5216 | 0.5862 | 0.7004 | 0.8327 | 0.9898 | 1.098 | 1.65 | 1.825

CCOC(C)=O + CCCCCC
Conditions | viscosity [mPa·s]
293.15 K, 101 kPa, x1 = 0.0998 | 0.3115
293.15 K, 101 kPa, x1 = 0.2074 | 0.3152
293.15 K, 101 kPa, x1 = 0.2978 | 0.3217
293.15 K, 101 kPa, x1 = 0.4046 | 0.3303
293.15 K, 101 kPa, x1 = 0.5034 | 0.3416
293.15 K, 101 kPa, x1 = 0.614 | 0.3599
293.15 K, 101 kPa, x1 = 0.6748 | 0.3683
293.15 K, 101 kPa, x1 = 0.8018 | 0.3963
293.15 K, 101 kPa, x1 = 0.9118 | 0.4248
298.15 K, 101 kPa, x1 = 0.0436 | 0.29
298.15 K, 101 kPa, x1 = 0.0998 | 0.2967
298.15 K, 101 kPa, x1 = 0.15 | 0.293
298.15 K, 101 kPa, x1 = 0.2074 | 0.3001
298.15 K, 101 kPa, x1 = 0.2504 | 0.298
298.15 K, 101 kPa, x1 = 0.2978 | 0.3052
298.15 K, 101 kPa, x1 = 0.3494 | 0.305
298.15 K, 101 kPa, x1 = 0.4046 | 0.3142
298.15 K, 101 kPa, x1 = 0.4477 | 0.314
298.15 K, 101 kPa, x1 = 0.4908 | 0.319
298.15 K, 101 kPa, x1 = 0.5034 | 0.3265
298.15 K, 101 kPa, x1 = 0.5489 | 0.326
298.15 K, 101 kPa, x1 = 0.614 | 0.3413
298.15 K, 101 kPa, x1 = 0.6485 | 0.342
298.15 K, 101 kPa, x1 = 0.6748 | 0.3496
298.15 K, 101 kPa, x1 = 0.7513 | 0.361
298.15 K, 101 kPa, x1 = 0.8018 | 0.3755
298.15 K, 101 kPa, x1 = 0.8507 | 0.384
298.15 K, 101 kPa, x1 = 0.9118 | 0.402
298.15 K, 101 kPa, x1 = 0.942 | 0.41
303.15 K, 101 kPa, x1 = 0.0998 | 0.283
303.15 K, 101 kPa, x1 = 0.2032 | 0.2874
303.15 K, 101 kPa, x1 = 0.2074 | 0.2861
303.15 K, 101 kPa, x1 = 0.2978 | 0.2901
303.15 K, 101 kPa, x1 = 0.4017 | 0.3009
303.15 K, 101 kPa, x1 = 0.4046 | 0.2991
303.15 K, 101 kPa, x1 = 0.5013 | 0.3117
303.15 K, 101 kPa, x1 = 0.5034 | 0.3092
303.15 K, 101 kPa, x1 = 0.599 | 0.3249
303.15 K, 101 kPa, x1 = 0.614 | 0.3231
303.15 K, 101 kPa, x1 = 0.6748 | 0.3317
303.15 K, 101 kPa, x1 = 0.8018 | 0.3565
303.15 K, 101 kPa, x1 = 0.8203 | 0.3611
303.15 K, 101 kPa, x1 = 0.9118 | 0.3812
303.15 K, 101.3 kPa, x1 = 0.106 | 0.2774
303.15 K, 101.3 kPa, x1 = 0.1995 | 0.2799
303.15 K, 101.3 kPa, x1 = 0.3097 | 0.2869
303.15 K, 101.3 kPa, x1 = 0.4073 | 0.2945
303.15 K, 101.3 kPa, x1 = 0.5055 | 0.3045
303.15 K, 101.3 kPa, x1 = 0.6094 | 0.3179
303.15 K, 101.3 kPa, x1 = 0.7062 | 0.3331
303.15 K, 101.3 kPa, x1 = 0.8061 | 0.3523
303.15 K, 101.3 kPa, x1 = 0.9036 | 0.3748
308.15 K, 101 kPa, x1 = 0.0436 | 0.272
308.15 K, 101 kPa, x1 = 0.15 | 0.274
308.15 K, 101 kPa, x1 = 0.2504 | 0.277
308.15 K, 101 kPa, x1 = 0.3494 | 0.282
308.15 K, 101 kPa, x1 = 0.4477 | 0.29
308.15 K, 101 kPa, x1 = 0.4908 | 0.294
308.15 K, 101 kPa, x1 = 0.5489 | 0.3
308.15 K, 101 kPa, x1 = 0.6485 | 0.313
308.15 K, 101 kPa, x1 = 0.7513 | 0.33
308.15 K, 101 kPa, x1 = 0.8507 | 0.349
308.15 K, 101 kPa, x1 = 0.942 | 0.371
313.15 K, 101 kPa, x1 = 0.0998 | 0.2582
313.15 K, 101 kPa, x1 = 0.2074 | 0.2604
313.15 K, 101 kPa, x1 = 0.2978 | 0.2643
313.15 K, 101 kPa, x1 = 0.4046 | 0.2723
313.15 K, 101 kPa, x1 = 0.5034 | 0.2806
313.15 K, 101 kPa, x1 = 0.614 | 0.2933
313.15 K, 101 kPa, x1 = 0.6748 | 0.3004
313.15 K, 101 kPa, x1 = 0.8018 | 0.3224
313.15 K, 101 kPa, x1 = 0.9118 | 0.3443

From the CheMixHub viscosity set
